Experiments:
Format in all cases: in vivo
[1] = test system: Echinochloa crus-galli (L.) P. Beauv. var. formosensis Ohwi; assay: Test for Herbicidal Effect in Flooding Treatment (#2), ECHDG at 2-2.5 leaf stage; conditions: flooding treatment at 2-2.5 leaf stage, dose 0.2 kg/ha, visual observation on day 21
Method in brief: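 Flooded muddy soil was seeded with the weed, and at 2–2.5 leaf stage compound in acetone/Tween 80 water was dropped on the water surface at 0.2 kg/ha. Plants were kept in a glasshouse and scored visually on day 21 from 0 (<10% growth inhibition) to 5 (≥90% or complete withering).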

Scirpus juncoides = assay: Test for Herbicidal Effect in Flooding Treatment (#1), SCIJU; conditions: flooding treatment at seeding, dose 2 kg/ha, visual observation on day 21
Method in brief: (§1)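 Flooded soil in cups was seeded 24 h after flooding, then treated with compound in acetone diluted with Tween 80-containing water, dropped onto the water surface at 2 kg/ha. After growth in a glasshouse, growth inhibition was scored visually on day 21 on a 0 (<10%) to 5 (≥90% or complete withering) scale.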

[2] = test system: Echinochloa crus-galli (L.) P. Beauv. var. formosensis Ohwi; assay: Test for Herbicidal Effect in Flooding Treatment (#1), ECHDG; conditions: flooding treatment at seeding, dose 2 kg/ha, visual observation on day 21
Method in brief: as §1

Cyperus microiria = assay: Test for Herbicidal Effect in Flooding Treatment (#1), CYMIC; conditions: flooding treatment at seeding, dose 2 kg/ha, visual observation on day 21
Procedure: (#1) Test for Herbicidal Effect in Flooding Treatment: Styrol cups each having an opening diameter of 8 cm (about 52 cm^2) were respectively filled with soil (45 ml) which had been passed through a sieve (2 mm). Water (about 115 ml) was mixed with the soil such that the soil was flooded. After the soil stood still for 24 hours, Monochoria vaginalis, Echinochloa crus-galli (L.) P. Beauv. var. formosensis Ohwi, Cyperus difformis (umbrella sedge), and Scirpus juncoides were seeded. Each of the compounds of the present invention was dissolved in acetone, and the obtained product was then diluted with water containing Tween 80®. Each of the resultant chemical solutions was dropped on the entire surface of an associated one of treatment sections, so that each section was treated with 1 ml of the respective chemical solution (a dose of 2 kg/ha). After the treatment, the plants were grown in a glasshouse. On day 21, a survey was conducted on the herbicidal activity by visual observation, and evaluation was made according to the following criteria. 0: Growth inhibition effect is less than 10%. 1: Growth inhibition effect is equal to or greater than 10%, and less than 30%. 2; Growth inhibition effect is equal to or greater than 30%, and less than 50%. 3: Growth inhibition effect equal to or greater than 50%, and less than 70%. 4: Growth inhibition effect is equal to or greater than 70%, and less than 90%. 5: Growth inhibition effect is equal to or greater than 90%, or complete withering is achieved. ECHDG=Echinochloa crus-galli (L.) P. Beauv. var. formosensis Ohwi, MONVA=Monochoria vaginalis, SCIJU=Scirpus juncoides, CYMIC=Cyperus microiria.

| SMILES | ECHDG (2-2.5L) #2 herbicidal effect (growth inhibition grade) [1] | SCIJU #1 herbicidal effect (growth inhibition grade) (Scirpus juncoides) | ECHDG #1 herbicidal effect (growth inhibition grade) [2] | CYMIC #1 herbicidal effect (growth inhibition grade) (Cyperus microiria) |
| --- | --- | --- | --- | --- |
| COc1cc(F)ccc1CS(=O)(=O)c1ncc(Cl)s1 [Compound 1C-3] | 4 (Growth inhibition effect is equal to or greater than 70%, and less than 90%) | 5 (Growth inhibition effect is equal to or greater than 90%, or complete withering is achieved) | 5 (Growth inhibition effect is equal to or greater than 90%, or complete withering is achieved) | 5 (Growth inhibition effect is equal to or greater than 90%, or complete withering is achieved) |
| COc1cccc(CS(=O)(=O)c2ncc(Cl)s2)c1C [Compound 1C-67] | 5 (Growth inhibition effect is equal to or greater than 90%, or complete withering is achieved) | 5 (Growth inhibition effect is equal to or greater than 90%, or complete withering is achieved) | 5 (Growth inhibition effect is equal to or greater than 90%, or complete withering is achieved) | 5 (Growth inhibition effect is equal to or greater than 90%, or complete withering is achieved) |
| O=S(=O)(Cc1cccc(OC(F)(F)F)c1)c1ncc(Cl)s1 [Compound 1C-85, 5-chloro-2-{[3-(trifluoromethoxy)phenyl][methanesulfonyl]}-1,3-thiazole] | 1 (Growth inhibition effect is equal to or greater than 10%, and less than 30%) | 5 (Growth inhibition effect is equal to or greater than 90%, or complete withering is achieved) | 5 (Growth inhibition effect is equal to or greater than 90%, or complete withering is achieved) | 5 (Growth inhibition effect is equal to or greater than 90%, or complete withering is achieved) |
| CCOc1c(Cl)cccc1CS(=O)(=O)c1ncc(Cl)s1 [Compound 1C-10] | 5 (Growth inhibition effect is equal to or greater than 90%, or complete withering is achieved) | 5 (Growth inhibition effect is equal to or greater than 90%, or complete withering is achieved) | 5 (Growth inhibition effect is equal to or greater than 90%, or complete withering is achieved) | 5 (Growth inhibition effect is equal to or greater than 90%, or complete withering is achieved) |
| CCOc1cc(F)c(CS(=O)(=O)c2ncc(Cl)s2)c(F)c1 [Compound 1C-103] | 5 (Growth inhibition effect is equal to or greater than 90%, or complete withering is achieved) | 5 (Growth inhibition effect is equal to or greater than 90%, or complete withering is achieved) | 5 (Growth inhibition effect is equal to or greater than 90%, or complete withering is achieved) | 5 (Growth inhibition effect is equal to or greater than 90%, or complete withering is achieved) |
| COc1ccc(Cl)c(CS(=O)(=O)c2ncc(Cl)s2)c1F [Compound 1C-71] | 5 (Growth inhibition effect is equal to or greater than 90%, or complete withering is achieved) | 5 (Growth inhibition effect is equal to or greater than 90%, or complete withering is achieved) | 5 (Growth inhibition effect is equal to or greater than 90%, or complete withering is achieved) | 5 (Growth inhibition effect is equal to or greater than 90%, or complete withering is achieved) |
| CCCCOc1cc(F)c(CS(=O)(=O)c2ncc(Cl)s2)c(F)c1 [Compound 1C-112] | 3 (Growth inhibition effect equal to or greater than 50%, and less than 70%) | 5 (Growth inhibition effect is equal to or greater than 90%, or complete withering is achieved) | 5 (Growth inhibition effect is equal to or greater than 90%, or complete withering is achieved) | 5 (Growth inhibition effect is equal to or greater than 90%, or complete withering is achieved) |
| CN(C)c1cc(Cl)cc(CS(=O)(=O)c2ncc(Cl)s2)c1Cl [Compound 1C-170] | 5 (Growth inhibition effect is equal to or greater than 90%, or complete withering is achieved) | 5 (Growth inhibition effect is equal to or greater than 90%, or complete withering is achieved) | 5 (Growth inhibition effect is equal to or greater than 90%, or complete withering is achieved) | 5 (Growth inhibition effect is equal to or greater than 90%, or complete withering is achieved) |
| O=S(=O)(Cc1ccccc1OC(F)(F)F)c1ncc(Cl)s1 [Compound 1C-46] | 5 (Growth inhibition effect is equal to or greater than 90%, or complete withering is achieved) | 5 (Growth inhibition effect is equal to or greater than 90%, or complete withering is achieved) | 5 (Growth inhibition effect is equal to or greater than 90%, or complete withering is achieved) | 5 (Growth inhibition effect is equal to or greater than 90%, or complete withering is achieved) |
| CCOc1cc(CS(=O)(=O)c2ncc(Cl)s2)ccc1F [Compound 1C-76] | 4 (Growth inhibition effect is equal to or greater than 70%, and less than 90%) | 5 (Growth inhibition effect is equal to or greater than 90%, or complete withering is achieved) | 5 (Growth inhibition effect is equal to or greater than 90%, or complete withering is achieved) | 5 (Growth inhibition effect is equal to or greater than 90%, or complete withering is achieved) |
| CCOc1c(Cl)cc(Cl)c(Cl)c1CS(=O)(=O)c1ncc(Cl)s1 [Compound 1C-34] | 4 (Growth inhibition effect is equal to or greater than 70%, and less than 90%) | 5 (Growth inhibition effect is equal to or greater than 90%, or complete withering is achieved) | 5 (Growth inhibition effect is equal to or greater than 90%, or complete withering is achieved) | 5 (Growth inhibition effect is equal to or greater than 90%, or complete withering is achieved) |
| CCOc1ccc(C)cc1CS(=O)(=O)c1ncc(Cl)s1 [Compound 1C-18] | 5 (Growth inhibition effect is equal to or greater than 90%, or complete withering is achieved) | 5 (Growth inhibition effect is equal to or greater than 90%, or complete withering is achieved) | 5 (Growth inhibition effect is equal to or greater than 90%, or complete withering is achieved) | 5 (Growth inhibition effect is equal to or greater than 90%, or complete withering is achieved) |
| O=S(=O)(Cc1ccc(OC(F)(F)C(F)F)cc1)c1ncc(Cl)s1 [Compound 1C-116] | 3 (Growth inhibition effect equal to or greater than 50%, and less than 70%) | 5 (Growth inhibition effect is equal to or greater than 90%, or complete withering is achieved) | 5 (Growth inhibition effect is equal to or greater than 90%, or complete withering is achieved) | 5 (Growth inhibition effect is equal to or greater than 90%, or complete withering is achieved) |
| COc1cccc(OC)c1CS(=O)(=O)c1ncc(Cl)s1 [Compound 1C-127] | – | 5 (Growth inhibition effect is equal to or greater than 90%, or complete withering is achieved) | 5 (Growth inhibition effect is equal to or greater than 90%, or complete withering is achieved) | 5 (Growth inhibition effect is equal to or greater than 90%, or complete withering is achieved) |

Source: patent US20200060276A1, “THIAZOLE COMPOUND AND HERBICIDE” (OAT Agrio Co., Ltd., priority 2017, published 2020)
